The results in this text go back to paper PMC10647059, “Molecular Determinants of EphA2 and EphB2 Antagonism Enable the Design of Ligands with Improved Selectivity” (Journal of Chemical Information and Modeling, 2023).

As usually defined, the logD is the decadic logarithm of the distribution of all forms, ionised or not, between an organic phase and buffer at a given pH. By Kd is commonly meant the concentration at which binding is half-saturated.

For data set [1], the target named is T1, EphB2 (Mus musculus, UniProt P54763).
T1 sequence (P54763 19-543): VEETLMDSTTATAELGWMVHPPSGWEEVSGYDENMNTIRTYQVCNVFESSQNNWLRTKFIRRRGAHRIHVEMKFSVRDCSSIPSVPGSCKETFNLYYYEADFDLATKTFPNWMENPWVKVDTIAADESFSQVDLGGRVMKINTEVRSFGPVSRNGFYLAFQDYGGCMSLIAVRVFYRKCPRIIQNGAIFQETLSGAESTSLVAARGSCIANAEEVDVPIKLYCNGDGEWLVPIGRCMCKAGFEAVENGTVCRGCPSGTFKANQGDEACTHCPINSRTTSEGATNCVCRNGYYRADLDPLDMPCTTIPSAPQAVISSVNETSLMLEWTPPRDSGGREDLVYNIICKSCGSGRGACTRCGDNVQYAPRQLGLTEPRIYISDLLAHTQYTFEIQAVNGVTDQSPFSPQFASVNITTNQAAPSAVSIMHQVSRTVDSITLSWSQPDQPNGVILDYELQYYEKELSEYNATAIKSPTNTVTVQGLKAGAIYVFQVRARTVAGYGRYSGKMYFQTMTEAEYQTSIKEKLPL
The experiment in a line: ELISA binding assay: displacement and saturation of biotinylated ephrin-B1-Fc on immobilized EphB2. Conditions: data not shown. Background: An ELISA detects its analyte on a solid surface through an enzyme-linked reagent.

Data set [2] in a line: Rat liver microsome stability assay. The class given is in vitro ADME. As to conditions: liver microsomes, pH 7.4, 60 min at 37 °C, NADPH-generating system, read-out: compound recovery at 60 min in rat liver microsomes. How it is done: Experiments were performed as previously described.[59]
A general note: Microsomes from liver hold many membrane-bound enzymes, among them those of drug oxidation.

Data set [3] can be described thus: Rat plasma stability assay. As to conditions: 60 min at 37 °C, 1 μM.
Method: Pooled plasma (400 μL) was incubated at 37 °C in the presence of 10 mM phosphate-buffered saline (PBS) pH 7.4. 5 μL of compound stock solution in DMSO (final DMSO concentration: 1%; final compound concentration: 1 μM) was added to start the rat plasma stability assay. […] At fixed time points, aliquots of 50 μL were taken, added with two volumes of CH3CN containing as internal standard the structural analogue UniPR126, centrifuged (16,000g, 5 min, 4 °C), and analyzed by HPLC-ESI-MS/MS. The responses (i.e., peak area ratios of test compound vs internal standard) were referred to the zero time-point samples (considered as 100%) to determine the percentage of remaining compound vs time.
For data set [4], the system named is U251 GBM cell line. The data set is described as follows: MTT cell viability/proliferation assay on U251 glioblastoma cell line. The class given is cell-based. Conditions: 30 μM, continuous exposure, time course vs control DMSO 0.3%. How it is done:
Figure 12 reports the time course of cell growth compared to the control (DMSO 0.3% solution) in the presence of a compound concentration of 30 μM. […] Although additional investigations will be required to confirm this promising behavior, it could be speculated that the higher antiproliferative activity of UniPR1449 compared to that of […], and the reference antagonist UniPR1331, is due to its peculiar pharmacological profile at the level of Eph receptors.
Data are the means of at least three independent experiments ± standard deviation.
Figure S10. Cell viability assay performed using a MTT assay on U251 glioblastoma cell line treated with the approved drug temozolomide and the reference compound UniPR1331.

The nature of data set [5]: physchem. As to conditions: pH 7.4.
Method: Distribution coefficients (D) were measured at physiological pH by the shake-flask method at room temperature (21.0 ± 0.5 °C), employing n-octanol/50 mM MOPS buffer pH 7.4, 0.15 M KCl ionic strength as a biphasic solvent system, after mutual saturation by overnight stirring. A weighed amount of compound was dissolved in water-saturated n-octanol, a buffer was added, and the sample was stirred for 4 h to reach partition equilibrium. Partition phases were centrifuged (9000g, 10 min, 20 °C), separated, diluted with methanol, and dosed by HPLC-ESI-MS/MS.
The target of data set [6] is T2, EphA2 (Mus musculus, UniProt Q03145). The experiment in a line: ELISA binding assay: displacement and saturation of biotinylated ephrin-A1-Fc on immobilized EphA2-Fc.
T2 sequence (Q03145 with tags, fused parts or gaps limits assumed): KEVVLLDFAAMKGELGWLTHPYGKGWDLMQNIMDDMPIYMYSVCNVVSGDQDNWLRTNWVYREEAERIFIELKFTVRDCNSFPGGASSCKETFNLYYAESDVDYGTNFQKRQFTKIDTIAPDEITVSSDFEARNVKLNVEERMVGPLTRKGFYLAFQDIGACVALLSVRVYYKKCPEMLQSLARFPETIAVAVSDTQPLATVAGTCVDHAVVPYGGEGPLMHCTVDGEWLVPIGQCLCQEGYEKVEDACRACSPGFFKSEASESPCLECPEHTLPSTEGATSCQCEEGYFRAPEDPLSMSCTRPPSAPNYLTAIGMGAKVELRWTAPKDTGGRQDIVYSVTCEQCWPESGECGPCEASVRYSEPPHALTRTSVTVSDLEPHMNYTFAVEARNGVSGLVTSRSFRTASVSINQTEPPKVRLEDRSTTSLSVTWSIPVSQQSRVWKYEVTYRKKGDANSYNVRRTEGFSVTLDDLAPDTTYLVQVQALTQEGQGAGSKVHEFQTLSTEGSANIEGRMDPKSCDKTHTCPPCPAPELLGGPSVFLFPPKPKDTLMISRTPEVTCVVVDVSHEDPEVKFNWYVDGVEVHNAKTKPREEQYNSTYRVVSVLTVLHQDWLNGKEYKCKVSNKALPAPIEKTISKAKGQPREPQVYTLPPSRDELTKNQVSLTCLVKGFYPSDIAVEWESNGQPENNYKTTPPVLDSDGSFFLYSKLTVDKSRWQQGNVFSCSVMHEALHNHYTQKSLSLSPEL
Method: Compounds were added to the wells at proper concentrations in 0.5% DMSO and incubated at 37 °C for 1 h. Biotinylated ephrin-A1-Fc was added at 37 °C for 4 h. Data are the means of three independent experiments ± standard deviation.
The day after, wells were washed with a washing buffer (PBS 0.05% tween20, pH 7.5) and blocked with a blocking buffer solution (PBS 1% BSA) for 1 h at 37 °C. Compounds were added to the wells at a proper concentration in 0.5% DMSO and incubated at 37 °C for 1 h. […] After 4 h for displacement assays or 5 h for saturation studies, wells were washed and incubated with 100 μL/well Streptavidin-HRP (Sigma S5512) for 20 min at room temperature. Then, wells were washed again with a washing buffer and incubated at room temperature with 0.1 mg/mL tetramethylbenzidine (Sigma T2885) reconstituted in stable peroxide buffer (0,05 M citric acid +0,05 M dibasic sodium phosphate, pH 5). The reaction was quenched with 3 N HCl. Absorbance was read at 450 nm (ELISA plate reader). The IC50 and Ki values were determined using one-site competition nonlinear regression analysis with Prism software (GraphPad Software Inc.).
In data set [7] the target is T2, EphA2. The data set is described as follows: Surface plasmon resonance, steady-state analysis on immobilized EphA2-Fc. The class given is binding. As to conditions: EphA2-Fc on CM4 sensorchip; ± standard deviation; read-out: KD (SPR, steady-state). On the procedure: Increasing concentrations of the two compounds were injected over EphA2-Fc immobilized on the surface of a CM SPR4 sensorchip and evaluated for their interaction.
Surface plasmon resonance (SPR) measurements were performed on a BIAcore X100 instrument, using a carboxyl-methyl-dextran-coated sensorchip (CM4, GE-Healthcare).
For orientation: In SPR one partner is held on a chip, and binding of the other changes the refractive index at the surface.

As for `C[C@H](CCC(=O)N[C@H](CC(=O)O)Cc1c[nH]c2ccccc12)[C@H]1CCC2C3CC=C4C[C@@H](O)CC[C@]4(C)C3CC[C@@]21C` (stereo partly drawn) [UniPR1447, N-(3β-hydroxy-Δ^5-cholen-24-oyl)-L-β-homotryptophan], the “reversibility of binding to EphB2” value in data set [1] is on record as “fully reversible”. Further, the remaining at 60 min, 1 μM in data set [2] was determined as 40.3%. For the same compound, the “stability in rat plasma” value in data set [3] is given as “stable”. Moreover, the “effect on U251 cell growth (MTT)” value in data set [4] is given as “did not significantly affect U251 growth”. Further, the logD at 4 h in data set [5] was determined as 4.6 ± 0.1.
Regarding `CC(CCC(=O)NC(CC(=O)O)Cc1cn(S(=O)(=O)c2ccccc2)c2ccccc12)C1CCC2C3CC=C4CC(O)CCC4(C)C3CCC12C` [UniPR1449, N-(3β-hydroxy-Δ^5-cholen-24-oyl)-1-benzensulfonyl-L-β-homotryptophan], in data set [6] (50 μM compound, with or without washing three times with PBS before ephrin-A1-Fc), the “reversibility of binding to EphA2” value is “reversible”. The Ki in data set [6] (read-out: Ki for EphA2 (saturation curves of ephrin-A1-Fc, nonlinear regression)) was determined as 2.2 µM. For the same compound, the remaining at 60 min, 1 μM in data set [2] was determined as 62.2%. For the same compound, in data set [3], the “stability in rat plasma” value is reported as “stable”. In addition, the “effect on U251 cell growth (MTT)” value in data set [4] is listed as “fully blocked GBM growth”. In data set [5], this compound registered a logD at 4 h of 4.7 ± 0.11. In data set [7], the Kd was 3.8 ± 2.4 µM.
